Assay [1] concerns the target Rho kinase 1 (ROCK1) (Homo sapiens, UniProt Q13464). In words: In vitro Rho kinase inhibitory activity assay (ADP-Glo), ROCK1. The class given is biochemical. The note with it: 10 μM ATP, 25° C., Ki by Cheng-Prusoff. Here is the method: (§1) The effectiveness of compounds of the present invention to inhibit Rho kinase activity can be determined in a 10 μl assay containing 40 mM Tris pH7.5, 20 mM MgCl2 0.1 mg/ml BSA, 50 μM DTT and 2.5 μM peptide substrate (Myelin Basic Protein) using an ADP-Glo kit (Promega). Compounds were dissolved in DMSO such that the final concentration of DMSO was 1% in the assay. All reactions/incubations are performed at 25° C. Compound (2 ul) and either Rho kinase 1 or 2 (4 μl) were mixed and incubated for 30 mins. Reactions were initiated by addition of ATP (4 μl) such that the final concentration of ATP in the assay was 10 μM. After a 1 hour incubation 10 μl of ADP-Glo Reagent was added and after a further 45 minute incubation 20 ul of Kinase Detection Buffer was added and the mixture incubated for a further 30 minutes. The luminescent signal was measured on a luminometer. […] Compounds were tested in dose-response format and the inhibition of kinase activity was calculated at each concentration of compound. To determine the IC50 (concentration of compound required to inhibit 50% of the enzyme activity) data were fit to a plot of % inhibition vs Log10 compound concentration using a sigmoidal fit with a variable slope and fixing the maximum to 100% and the minimum to 0%. To determine the Ki values the Cheng-Prusoff equation was utilized (Ki=IC50/(1+[S]/Km)

Assay [2] deals with Rho kinase 2 (ROCK2) (Homo sapiens, UniProt O75116). In words: In vitro Rho kinase inhibitory activity assay (ADP-Glo), ROCK2. The assay is classed as biochemical. Conditions: 10 μM ATP, 25° C., Ki by Cheng-Prusoff. Here is the method:
as §1

Results on 25 molecules are retold here after patent publication US11147812B2, “Tyrosine analogues derivatives as Rho-kinase inhibitors” (Chiesi Farmaceutici S.p.A., priority 2017, dated 2021).

In general, Ki refers to the equilibrium dissociation constant of an inhibitor or competing ligand from its target.

Chain of Rho kinase 2 (ROCK2) (O75116 whole entry): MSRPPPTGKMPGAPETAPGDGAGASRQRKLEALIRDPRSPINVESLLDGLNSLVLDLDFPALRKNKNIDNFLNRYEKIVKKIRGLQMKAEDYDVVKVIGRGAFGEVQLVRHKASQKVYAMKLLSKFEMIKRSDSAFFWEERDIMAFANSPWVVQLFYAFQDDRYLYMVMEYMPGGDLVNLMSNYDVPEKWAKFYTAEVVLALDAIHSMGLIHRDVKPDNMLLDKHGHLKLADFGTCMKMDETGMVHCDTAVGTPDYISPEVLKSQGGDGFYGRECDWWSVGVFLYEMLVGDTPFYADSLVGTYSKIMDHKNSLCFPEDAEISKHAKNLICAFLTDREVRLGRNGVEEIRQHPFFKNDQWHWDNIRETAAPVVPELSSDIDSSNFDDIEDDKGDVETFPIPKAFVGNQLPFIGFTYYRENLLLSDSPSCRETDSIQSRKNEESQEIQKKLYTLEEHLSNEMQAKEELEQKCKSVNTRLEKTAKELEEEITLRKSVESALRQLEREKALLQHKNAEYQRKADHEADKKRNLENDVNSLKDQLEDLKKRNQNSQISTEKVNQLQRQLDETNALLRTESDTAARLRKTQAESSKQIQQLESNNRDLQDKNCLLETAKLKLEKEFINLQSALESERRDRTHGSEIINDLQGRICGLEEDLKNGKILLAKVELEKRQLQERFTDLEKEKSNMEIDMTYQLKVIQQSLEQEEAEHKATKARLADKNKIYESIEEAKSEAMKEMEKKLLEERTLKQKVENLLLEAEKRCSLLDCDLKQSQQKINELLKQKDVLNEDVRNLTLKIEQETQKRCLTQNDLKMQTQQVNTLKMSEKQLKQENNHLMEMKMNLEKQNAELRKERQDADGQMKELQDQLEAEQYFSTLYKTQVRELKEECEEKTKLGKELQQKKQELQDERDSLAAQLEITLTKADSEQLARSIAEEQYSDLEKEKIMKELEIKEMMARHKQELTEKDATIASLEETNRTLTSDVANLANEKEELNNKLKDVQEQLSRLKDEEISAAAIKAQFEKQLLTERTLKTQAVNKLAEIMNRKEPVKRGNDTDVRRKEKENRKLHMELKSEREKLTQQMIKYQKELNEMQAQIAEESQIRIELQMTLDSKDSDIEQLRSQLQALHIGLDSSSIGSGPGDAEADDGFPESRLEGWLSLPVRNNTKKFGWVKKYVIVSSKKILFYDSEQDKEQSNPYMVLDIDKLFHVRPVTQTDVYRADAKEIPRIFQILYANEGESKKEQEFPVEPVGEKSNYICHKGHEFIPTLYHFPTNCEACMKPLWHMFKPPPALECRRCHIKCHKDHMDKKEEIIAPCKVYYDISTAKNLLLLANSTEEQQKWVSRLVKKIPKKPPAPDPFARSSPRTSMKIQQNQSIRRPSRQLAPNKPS
Chain of Rho kinase 1 (ROCK1) (Q13464 whole entry): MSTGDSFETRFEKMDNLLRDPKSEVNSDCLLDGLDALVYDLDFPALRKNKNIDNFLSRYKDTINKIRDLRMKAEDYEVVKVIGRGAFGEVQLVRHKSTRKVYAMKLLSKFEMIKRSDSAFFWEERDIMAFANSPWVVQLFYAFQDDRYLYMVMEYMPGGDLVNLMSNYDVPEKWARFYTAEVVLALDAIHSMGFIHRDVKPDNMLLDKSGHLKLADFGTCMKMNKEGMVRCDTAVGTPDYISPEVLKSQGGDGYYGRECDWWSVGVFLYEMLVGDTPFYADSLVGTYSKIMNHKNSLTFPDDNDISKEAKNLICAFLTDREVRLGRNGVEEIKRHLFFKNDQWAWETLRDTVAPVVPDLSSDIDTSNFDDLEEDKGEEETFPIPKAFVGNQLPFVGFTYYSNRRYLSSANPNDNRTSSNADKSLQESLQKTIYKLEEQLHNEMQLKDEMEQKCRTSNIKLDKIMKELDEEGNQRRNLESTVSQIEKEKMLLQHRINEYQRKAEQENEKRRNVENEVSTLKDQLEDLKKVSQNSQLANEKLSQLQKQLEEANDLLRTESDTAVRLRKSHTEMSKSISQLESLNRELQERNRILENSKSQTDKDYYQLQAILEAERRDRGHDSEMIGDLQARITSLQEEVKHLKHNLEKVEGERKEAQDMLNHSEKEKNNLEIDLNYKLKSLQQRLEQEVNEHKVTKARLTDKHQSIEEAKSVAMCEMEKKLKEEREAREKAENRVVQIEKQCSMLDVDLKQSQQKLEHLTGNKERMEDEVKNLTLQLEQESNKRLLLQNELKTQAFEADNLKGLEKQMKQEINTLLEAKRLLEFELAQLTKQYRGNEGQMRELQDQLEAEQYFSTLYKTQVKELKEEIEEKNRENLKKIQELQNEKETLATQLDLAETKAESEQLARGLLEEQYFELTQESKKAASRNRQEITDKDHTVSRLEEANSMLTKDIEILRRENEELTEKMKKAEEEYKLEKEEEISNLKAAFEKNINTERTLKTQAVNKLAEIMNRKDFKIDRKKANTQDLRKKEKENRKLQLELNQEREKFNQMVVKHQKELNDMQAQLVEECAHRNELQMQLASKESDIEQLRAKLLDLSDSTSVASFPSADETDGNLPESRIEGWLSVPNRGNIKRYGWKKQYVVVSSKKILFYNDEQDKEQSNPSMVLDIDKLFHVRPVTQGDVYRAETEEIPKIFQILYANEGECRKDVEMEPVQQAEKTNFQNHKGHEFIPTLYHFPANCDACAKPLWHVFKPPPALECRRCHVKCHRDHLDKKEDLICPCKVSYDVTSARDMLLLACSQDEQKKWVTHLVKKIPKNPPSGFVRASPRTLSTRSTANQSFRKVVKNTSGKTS

On to `Cc1c[nH]c2nccc(Oc3ccc([C@H]4CNC[C@@H]4C(=O)NCc4ccccc4)cc3)c12` (racemic) [Example 17, rac-(3R,4S)-N-benzyl-4-(4-((3-methyl-1H-pyrrolo[2,3-b]pyridin-4-yl)oxy)phenyl)pyrrolidine-3-carboxamide], for which the Ki in assay [1] and in assay [2] was below 3 nM each time.

Take `Cc1c[nH]c2nccc(Oc3ccc([C@H]4CNC[C@@H]4C(=O)N(C)Cc4ccccc4)cc3)c12` (racemic) [Example 18, rac-(3R,4S)-N-benzyl-N-methyl-4-(4-((3-methyl-1H-pyrrolo[2,3-b]pyridin-4-yl)oxy)phenyl)pyrrolidine-3-carboxamide]: the results for the Ki in assay [1] and in assay [2] were 3 to 30 nM and below 3 nM, respectively.

For the molecule `Cc1c[nH]c2nccc(Oc3ccc([C@H]4CCN[C@@H]4C(=O)NCc4ccccc4)cc3)c12` (racemic) [Example 19, rac-(2S,3R)-N-benzyl-3-(4-((3-methyl-1H-pyrrolo[2,3-b]pyridin-4-yl)oxy)phenyl)pyrrolidine-2-carboxamide], the Ki in assay [1] and in assay [2] was below 3 nM in each case.

Take `Cc1c[nH]c2nccc(Oc3ccc([C@H]4CCN[C@@H]4C(=O)NCCc4ccncc4)cc3)c12` (racemic) [Example 20, rac-(2S,3R)-3-(4-((3-methyl-1H-pyrrolo[2,3-b]pyridin-4-yl)oxy)phenyl)-N-(2-(pyridin-4-yl)ethyl)pyrrolidine-2-carboxamide]: the Ki in assay [1] and in assay [2] was below 3 nM in each case.

Take `COCCCNC(=O)[C@H]1NCC[C@@H]1c1ccc(Oc2ccnc3[nH]cc(C)c23)cc1` (racemic) [Example 21, rac-(2S,3R)-N-(3-methoxypropyl)-3-(4-((3-methyl-1H-pyrrolo[2,3-b]pyridin-4-yl)oxy)phenyl)pyrrolidine-2-carboxamide]: the figures for the Ki in assay [1] and in assay [2] were 3 to 30 nM and below 3 nM, respectively.

On to `Cc1c[nH]c2nccc(Oc3ccc([C@H]4CCN[C@@H]4C(=O)NCCc4ccccc4)cc3)c12` (racemic) [Example 22, rac-(2S,3R)-3-(4-((3-methyl-1H-pyrrolo[2,3-b]pyridin-4-yl)oxy)phenyl)-N-phenethylpyrrolidine-2-carboxamide], for which the Ki in assay [1] and in assay [2] was below 3 nM throughout.

On to `Cc1c[nH]c2nccc(Oc3ccc([C@H]4CCN[C@@H]4C(=O)NCCOc4ccccc4)cc3)c12` (racemic) [Example 23, rac-(2S,3R)-3-(4-((3-methyl-1H-pyrrolo[2,3-b]pyridin-4-yl)oxy)phenyl)-N-(2-phenoxyethyl)pyrrolidine-2-carboxamide], for which the Ki in assay [1] and in assay [2] was below 3 nM in each case.

Turning to `Cc1c[nH]c2nccc(Oc3ccc([C@H]4CCN[C@@H]4C(=O)NC4CCOCC4)cc3)c12` (racemic) [Example 24, rac-(2S,3R)-3-(4-((3-methyl-1H-pyrrolo[2,3-b]pyridin-4-yl)oxy)phenyl)-N-(tetrahydro-2H-pyran-4-yl)pyrrolidine-2-carboxamide], the Ki in assay [1] and in assay [2] was 3 to 30 nM throughout.

With `Cc1c[nH]c2nccc(Oc3ccc([C@H]4CCN[C@@H]4C(=O)NC4CCN(C)CC4)cc3)c12` (racemic) [Example 25, rac-(2S,3R)-3-(4-((3-methyl-1H-pyrrolo[2,3-b]pyridin-4-yl)oxy)phenyl)-N-(1-methylpiperidin-4-yl)pyrrolidine-2-carboxamide], the Ki in assay [1] and in assay [2] was 3 to 30 nM throughout.

Regarding `Cc1c[nH]c2nccc(Oc3ccc([C@H]4CCN[C@@H]4C(=O)NCCCN(C)C)cc3)c12` (racemic) [Example 26, rac-(2R,3S)-N-(3-(dimethylamino)propyl)-3-(4-((3-methyl-1H-pyrrolo[2,3-b]pyridin-4-yl)oxy)phenyl)pyrrolidine-2-carboxamide], the Ki in assay [1] and in assay [2] was 3 to 30 nM in each case.

On to `Cc1c[nH]c2nccc(Oc3ccc([C@@H]4CCN[C@H]4C(=O)N4CCNCC4)cc3)c12` (racemic) [Example 27, rac-((2S,3R)-3-(4-((3-methyl-1H-pyrrolo[2,3-b]pyridin-4-yl)oxy)phenyl)pyrrolidin-2-yl)(piperazin-1-yl)methanone], for which the Ki in assay [1] and in assay [2] was 3 to 30 nM throughout.

In the case of `Cc1c[nH]c2nccc(Oc3ccc([C@@H]4CN(C)C[C@H]4C(=O)NCc4ccccc4)cc3)c12` (racemic) [Example 50, rac-(3R,4S)-N-benzyl-1-methyl-4-(4-((3-methyl-1H-pyrrolo[2,3-b]pyridin-4-yl)oxy)phenyl)pyrrolidine-3-carboxamide], the inhibition constant Ki in assay [1] was 3 to 30 nM; in assay [2] it was below 3 nM.

Regarding `Cc1c[nH]c2nccc(Oc3ccc(CC(CN)C(=O)N4C[C@@H]5C[C@H]4CN5C)cc3F)c12` (single isomer, unassigned) [Example 4A], the Ki in assay [1] and in assay [2] was 3 to 30 nM throughout.

For `Cc1c[nH]c2nccc(Oc3ccc(CC(CN)C(=O)N4C[C@@H]5C[C@H]4CN5C)cc3F)c12` (single isomer, unassigned) [Example 4B], the Ki in assay [1] and in assay [2] was below 3 nM each time.

With `Cc1c[nH]c2nccc(Oc3ccc(CC(CN)C(=O)N4CCN(Cc5ccccn5)CC4)cc3F)c12` (single isomer, unassigned) [Example 5A, 3-amino-2-(3-fluoro-4-((3-methyl-1H-pyrrolo[2,3-b]pyridin-4-yl)oxy)benzyl)-1-(4-(pyridin-2-ylmethyl)piperazin-1-yl)propan-1-one], the Ki in assay [1] and in assay [2] was 3 to 30 nM throughout.

Consider `Cc1c[nH]c2nccc(Oc3ccc(CC(CN)C(=O)N4CCN(Cc5ccccn5)CC4)cc3F)c12` (single isomer, unassigned) [Example 5B, 3-amino-2-(3-fluoro-4-((3-methyl-1H-pyrrolo[2,3-b]pyridin-4-yl)oxy)benzyl)-1-(4-(pyridin-2-ylmethyl)piperazin-1-yl)propan-1-one], for which the Ki in assay [1] and in assay [2] was below 3 nM throughout.

As for `Cc1c[nH]c2nccc(Oc3ccc(C(N)CC(=O)N4CCN(Cc5ccccc5)CC4)cc3)c12` (single isomer, unassigned) [Example 7A, 3-amino-1-(4-benzylpiperazin-1-yl)-3-(4-((3-methyl-1H-pyrrolo[2,3-b]pyridin-4-yl)oxy)phenyl)propan-1-one], the Ki in assay [1] and in assay [2] was below 3 nM throughout.

For `Cc1c[nH]c2nccc(Oc3ccc(C(N)CC(=O)N4CCN(Cc5ccccc5)CC4)cc3)c12` (single isomer, unassigned) [Example 7B, 3-amino-1-(4-benzylpiperazin-1-yl)-3-(4-((3-methyl-1H-pyrrolo[2,3-b]pyridin-4-yl)oxy)phenyl)propan-1-one], the Ki in assay [1] and in assay [2] was 3 to 30 nM in each case.

As for `Cc1c[nH]c2nccc(Oc3ccc([C@H]4CNC[C@@H]4C(=O)NCc4ccccc4)cc3)c12` (single isomer, unassigned) [Example 17A], the Ki in assay [1] and in assay [2] was below 3 nM each time.

`Cc1c[nH]c2nccc(Oc3ccc([C@H]4CNC[C@@H]4C(=O)NCc4ccccc4)cc3)c12` (single isomer, unassigned) [Example 17B]: the Ki in assay [1] and in assay [2] was 3 to 30 nM throughout.

For the molecule `Cc1c[nH]c2nccc(Oc3ccc(CC(CN)C(=O)N4CCN(Cc5ccccc5)CC4)cc3F)c12` (single isomer, unassigned) [Example 29A, 3-amino-1-(4-benzylpiperazin-1-yl)-2-(3-fluoro-4-((3-methyl-1H-pyrrolo[2,3-b]pyridin-4-yl)oxy)benzyl)propan-l-one], the Ki in assay [1] and in assay [2] was 3 to 30 nM throughout.

On to `Cc1c[nH]c2nccc(Oc3ccc(CC(CN)C(=O)N4CCN(Cc5ccccc5)CC4)cc3F)c12` (single isomer, unassigned) [Example 29B, 3-amino-1-(4-benzylpiperazin-1-yl)-2-(3-fluoro-4-((3-methyl-1H-pyrrolo[2,3-b]pyridin-4-yl)oxy)benzyl)propan-1-one], for which the Ki in assay [1] and in assay [2] was below 3 nM each time.

For the molecule `NCC(Cc1ccc(Oc2ccnc3[nH]ccc23)cc1)C(=O)N1CCN(Cc2ccccc2)CC1` (single isomer, unassigned) [Example 32A, 2-(4-((1H-pyrrolo[2,3-b]pyridin-4-yl)oxy)benzyl)-3-amino-1-(4-benzylpiperazin-1-yl)propan-1-one], the Ki in assay [1] and in assay [2] was 3 to 30 nM in each case.

With `NCC(Cc1ccc(Oc2ccnc3[nH]ccc23)cc1)C(=O)N1CCN(Cc2ccccc2)CC1` (single isomer, unassigned) [Example 32B, 2-(4-((1H-pyrrolo[2,3-b]pyridin-4-yl)oxy)benzyl)-3-amino-1-(4-benzylpiperazin-1-yl)propan-1-one], the Ki in assay [1] and in assay [2] was below 3 nM in each case.

`Cc1c[nH]c2nccc(Oc3ccc(CC(CN)C(=O)N4CCN(C)CC4)cc3)c12` (centres unmarked) [Example 1, 3-amino-2-(4-((3-methyl-1H-pyrrolo[2,3-b]pyridin-4-yl)oxy)benzyl)-1-(4-methylpiperazin-1-yl)propan-1-one]: the Ki in assay [1] and in assay [2] was below 3 nM each time.
